This experiment deals with Metabotropic glutamate receptor 2 (Rattus norvegicus) (UniProt P31421). The experiment in a line: PubChem AID 623929. Particulars: HEK293 GIRK rat mGlu2, thallium flux fluorescence.

pIC50: −log10 of the molar value.

The source of these data is PubChem BioAssay AID623929 (Vanderbilt Specialized Chemistry Center, 2012).

Chain of Metabotropic glutamate receptor 2 (Rattus norvegicus) (P31421 whole entry, looked up): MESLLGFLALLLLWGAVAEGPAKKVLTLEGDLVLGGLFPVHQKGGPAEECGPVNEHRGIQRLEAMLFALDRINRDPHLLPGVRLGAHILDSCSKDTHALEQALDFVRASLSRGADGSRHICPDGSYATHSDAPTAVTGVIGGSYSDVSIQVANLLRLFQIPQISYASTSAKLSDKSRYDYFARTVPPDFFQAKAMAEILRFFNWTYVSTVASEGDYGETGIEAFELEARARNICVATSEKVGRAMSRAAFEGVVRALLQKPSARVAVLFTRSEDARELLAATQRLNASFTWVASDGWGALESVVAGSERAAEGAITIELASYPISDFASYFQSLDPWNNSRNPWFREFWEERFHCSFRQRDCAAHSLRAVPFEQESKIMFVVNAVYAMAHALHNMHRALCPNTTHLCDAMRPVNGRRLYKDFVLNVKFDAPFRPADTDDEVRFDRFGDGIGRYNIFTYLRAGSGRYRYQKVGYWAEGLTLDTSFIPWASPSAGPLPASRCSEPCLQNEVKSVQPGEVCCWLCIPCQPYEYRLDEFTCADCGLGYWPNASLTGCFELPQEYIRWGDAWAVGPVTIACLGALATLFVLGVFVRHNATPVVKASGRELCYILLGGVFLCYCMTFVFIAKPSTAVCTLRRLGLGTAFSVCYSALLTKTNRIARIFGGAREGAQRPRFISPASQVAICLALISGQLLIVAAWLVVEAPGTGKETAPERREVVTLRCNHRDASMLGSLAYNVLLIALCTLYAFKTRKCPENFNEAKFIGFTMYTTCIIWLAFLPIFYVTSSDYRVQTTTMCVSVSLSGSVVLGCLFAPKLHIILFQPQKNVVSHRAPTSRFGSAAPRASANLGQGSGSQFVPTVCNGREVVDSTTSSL

For orientation: pIC50 means the IC50 on a negative log10 scale, so that one unit is a factor of ten. Consider `COc1ccc(C#Cc2ccc(C(=O)N3CCCC(CO)C3)cc2)cc1` (stereo not drawn), for which the pIC50 is 5.00.

For the compound `COc1ccc(C#Cc2ccc(C(=O)N3CCC[C@@H](CO)C3)cc2)cc1`, the pIC50 was 5.00.

Regarding `COc1ccc(C#Cc2ccc(C(=O)N3CCC[C@H](CO)C3)cc2)cc1`, the pIC50 is 5.00.
